According to patent publication US9702869B2, “Assays, antibodies, immunogens and compositions related to 5-FU” (WELLSTAT DIAGNOSTICS, LLC, priority 2011, dated 2017):

What was measured:
monoclonal antibody 61C6 = assay: Cross-reactivity evaluation with lyophilized reagents (Bi-mAb-Beads capture, TAG Plus 1-5C-5-FU-BSA detector); format: binding, Balb/c mouse
Method: This experiment was performed to test the specificity of the monoclonal antibody 61C6 against 5-FU analogues, pro-drugs and interference reagents. […] In this Example, the components of 5-FU assay (capture, detector) were lyophilized and the sample (calibrator, controls, and spiked plasma samples) were added directly to the lyophilized reagent pellets.
The assay was prepared using the following protocol. […] The capture and the detector solutions were aliquoted (20 μL) and lyophilized.
The assay procedure was as follows. The electrostatic on the surface of the microplate was reduced by using a Zerostat Antistatic Device prior to use. The device was pointed on the surface of the microplate, squeezed and the trigger released a few times across the microplate. 1 lyophilized pellet of each capture and detector reagent was transferred into plate wells using the Vacuum Pick-Up System. A hollow needle tip was attached onto the pick-up pen, and the finger controlled vacuum was used for picking up (the index finger was placed over the hole so that vacuum was drawn through the needle) or releasing pellet (lifting the index finger off of the hole). On a metal plate holder of a Digital Heat Block set at 37±2° C., 50 μL of each calibrator, control, and sample (in this case cross-reactivity panels) were added in duplicate directly into plate wells containing 2 lyophilized pellets. The plate was placed on the Micromix shaker set at Form 8 & Amp 6 for 30 seconds to mix. The plate was then placed in the metal plate holder of a Digital Heat Block set at 37±2° C. The plate was covered with a plate cover and incubated for 5±0.5 minutes.

mAb 61C6 = assay: Competitive ECL cross-reactivity test in human plasma with and without 5-FU; conditions: for Cross-Reactivity (%): human plasma, chemicals 10 μg/mL, chemotherapy drugs 100 μg/mL; for cross-reactivity: with and without 5-FU, Table 5
[1] = test system: anti-5-FU 61C6 monoclonal antibody; assay: Assay timing evaluation of competitive 5-FU ECL immunoassay; format: binding, Balb/c mouse; conditions: 25 ng/mL of 5-FU in charcoal stripped plasma
antibody 61C6 = assay: 5-FU ECL assay with antibody 61C6, summary of cross-reactivity; format: binding, Balb/c mouse; conditions: 5-FU assay with antibody 61C6
Method: The capture reagent 1-5C-5-FU-M270 beads appeared to be stable at 2-8° C. for at least 40 hours. […] The functional sensitivity was determined to be approximately 10 ng/mL (which is an estimate of functional sensitivity based on the calibrator curve).

[2] = Without 5-FU, lyophilized reagents, human plasma

O=C1[O][Pt]2([NH][C@@H]3CCCC[C@H]3[NH]2)[O]C1=O [Oxaliplatin]
% Cross-React (monoclonal antibody 61C6; With 1000 ng/mL Spiked 5-FU): 0.0% | Cross-Reactivity (%) (mAb 61C6; With 5-FU (379 ng/mL)): 0.01% | Cross-Reactivity (%) (mAb 61C6; Without 5-FU): 0.000% | cross-reactivity (mAb 61C6): essentially undetectable

CCCCCOC(=O)Nc1nc(=O)n([C@@H]2O[C@H](C)[C@@H](O)[C@H]2O)cc1F [Capecitabine]
% Cross-React (monoclonal antibody 61C6; With 75 ng/mL Spiked 5-FU): 0.7% | % Cross-React (monoclonal antibody 61C6; With 1000 ng/mL Spiked 5-FU): 0.6% | % Cross-React (monoclonal antibody 61C6; [2]): 0.0% | Cross-Reactivity (%) (mAb 61C6; With 5-FU (379 ng/mL)): −0.13% | Cross-Reactivity (%) (mAb 61C6; Without 5-FU): 0.00%

CN(Cc1cnc2nc(N)nc(N)c2n1)c1ccc(C(=O)N[C@@H](CCC(=O)O)C(=O)O)cc1 [Methotrexate]
% Cross-React (monoclonal antibody 61C6; With 75 ng/mL Spiked 5-FU): 0.0% | % Cross-React (monoclonal antibody 61C6; With 1000 ng/mL Spiked 5-FU): 0.1% | % Cross-React (monoclonal antibody 61C6; [2]): 0.0% | Cross-Reactivity (%) (mAb 61C6; With 5-FU (379 ng/mL)): −0.02% | Cross-Reactivity (%) (mAb 61C6; Without 5-FU): 0.000% | cross-reactivity (mAb 61C6): essentially undetectable

N.N.[Cl][Pt][Cl] [Cisplatin]
% Cross-React (monoclonal antibody 61C6; With 1000 ng/mL Spiked 5-FU): 0.1% | Cross-Reactivity (%) (mAb 61C6; With 5-FU (379 ng/mL)): −0.04% | Cross-Reactivity (%) (mAb 61C6; Without 5-FU): 0.001% | cross-reactivity (mAb 61C6): essentially undetectable

O=C1NCC(F)C(=O)N1 (centres unmarked) [DH5FU, 5-Fluorodihydropyrimidine-2,4-dione]
% Cross-React (monoclonal antibody 61C6; With 1000 ng/mL Spiked 5-FU): 1.0% | Cross-Reactivity (%) (mAb 61C6; With 5-FU (379 ng/mL)): 1.74% | Cross-Reactivity (%) (mAb 61C6; Without 5-FU): 2.62%

Cc1cn([C@H]2C[C@H](O)[C@@H](CO)O2)c(=O)[nH]c1=O [Thymidine]
% Cross-React (monoclonal antibody 61C6; With 75 ng/mL Spiked 5-FU): 1.0% | % Cross-React (monoclonal antibody 61C6; With 1000 ng/mL Spiked 5-FU): 1.3% | % Cross-React (monoclonal antibody 61C6; [2]): 0.2% | Cross-Reactivity (%) (mAb 61C6; With 5-FU (379 ng/mL)): 0.13% | Cross-Reactivity (%) (mAb 61C6; Without 5-FU): 0.05%

O=c1[nH]cc(F)c(=O)[nH]1 [5-FU, 5-Fluorouracil]
ECL signal compared to CAL1 ([1]; 5 minutes incubation at 37° C.): 61% | ECL signal compared to CAL1 ([1]; other incubation timing (10, 15 minutes)): 78%

O=c1[nH]c(=O)n(C2CCCO2)cc1F (centres unmarked) [Tegafur]
cross-reactivity (antibody 61C6): less than 12% | % Cross-React (monoclonal antibody 61C6; With 75 ng/mL Spiked 5-FU): 56% | % Cross-React (monoclonal antibody 61C6; With 1000 ng/mL Spiked 5-FU): 45% | % Cross-React (monoclonal antibody 61C6; [2]): 42% | Cross-Reactivity (%) (mAb 61C6; With 5-FU (379 ng/mL)): 15.5% | Cross-Reactivity (%) (mAb 61C6; Without 5-FU): 16.2%

Nc1nc(=O)c2c([nH]1)NCC(CNc1ccc(C(=O)N[C@@H](CCC(=O)O)C(=O)O)cc1)N2C=O (mixture of isomers) [Folinic Acid]
% Cross-React (monoclonal antibody 61C6; With 75 ng/mL Spiked 5-FU): 0.1% | % Cross-React (monoclonal antibody 61C6; With 1000 ng/mL Spiked 5-FU): 0.0% | % Cross-React (monoclonal antibody 61C6; [2]): 0.0% | Cross-Reactivity (%) (mAb 61C6; With 5-FU (379 ng/mL)): −0.01% | Cross-Reactivity (%) (mAb 61C6; Without 5-FU): 0.000% | cross-reactivity (mAb 61C6): essentially undetectable

O=c1cc[nH]c(=O)[nH]1 [Uracil]
% Cross-React (monoclonal antibody 61C6; With 75 ng/mL Spiked 5-FU): 3.4% | % Cross-React (monoclonal antibody 61C6; With 1000 ng/mL Spiked 5-FU): 2.6% | % Cross-React (monoclonal antibody 61C6; [2]): 1.9% | Cross-Reactivity (%) (mAb 61C6; With 5-FU (379 ng/mL)): 0.11% | Cross-Reactivity (%) (mAb 61C6; Without 5-FU): 0.94%

Hemoglobin
% Cross-React (monoclonal antibody 61C6; With 75 ng/mL Spiked 5-FU): 0.0% | % Cross-React (monoclonal antibody 61C6; With 1000 ng/mL Spiked 5-FU): −0.1% | % Cross-React (monoclonal antibody 61C6; [2]): 0.0%

CCc1c2c(nc3ccc(OC(=O)N4CCC(N5CCCCC5)CC4)cc13)-c1cc3c(c(=O)n1C2)COC(=O)[C@]3(O)CC [Irinotecan]
% Cross-React (monoclonal antibody 61C6; With 75 ng/mL Spiked 5-FU): 0.1% | % Cross-React (monoclonal antibody 61C6; With 1000 ng/mL Spiked 5-FU): 0.3% | cross-reactivity (mAb 61C6): essentially undetectable

O=c1ccn([C@@H]2O[C@H](CO)[C@@H](O)[C@H]2O)c(=O)[nH]1 [Uridine]
% Cross-React (monoclonal antibody 61C6; With 75 ng/mL Spiked 5-FU): 1.6% | % Cross-React (monoclonal antibody 61C6; With 1000 ng/mL Spiked 5-FU): 0.9% | % Cross-React (monoclonal antibody 61C6; [2]): 0.5% | Cross-Reactivity (%) (mAb 61C6; With 5-FU (379 ng/mL)): 0.16% | Cross-Reactivity (%) (mAb 61C6; Without 5-FU): 0.21%

Cc1c[nH]c(=O)[nH]c1=O [Thymine]
% Cross-React (monoclonal antibody 61C6; With 75 ng/mL Spiked 5-FU): 2.5% | % Cross-React (monoclonal antibody 61C6; With 1000 ng/mL Spiked 5-FU): 2.2% | % Cross-React (monoclonal antibody 61C6; [2]): 1.0% | Cross-Reactivity (%) (mAb 61C6; With 5-FU (379 ng/mL)): 0.80% | Cross-Reactivity (%) (mAb 61C6; Without 5-FU): 0.59%
